Assay results as given in PubChem BioAssay (NCI).
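Following 48 hours of exposure in 96-well plates, responses at five concentrations were used to interpolate endpoints linearly. At the TGI there is no net growth.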

Key:
Experiment in all cases: DTP human tumour cell line panel, 48 h
786-0 renal = tested on: 786-0 renal
A498 renal = tested on: A498 renal
A549 NSCLC = tested on: A549 NSCLC
ACHN renal = tested on: ACHN renal
CCRF-CEM leukemia = tested on: CCRF-CEM leukemia
COLO 205 colon = tested on: COLO 205 colon
DLD-1 colon = tested on: DLD-1 colon
DMS 114 small cell lung = tested on: DMS 114 small cell lung
DMS 273 small cell lung = tested on: DMS 273 small cell lung
EKVX NSCLC = tested on: EKVX NSCLC
HCT-116 colon = tested on: HCT-116 colon
HCT-15 colon = tested on: HCT-15 colon
HL-60(TB) leukemia = tested on: HL-60(TB) leukemia
HOP-62 NSCLC = tested on: HOP-62 NSCLC
HOP-92 NSCLC = tested on: HOP-92 NSCLC
HT29 colon = tested on: HT29 colon
IGROV1 ovarian = tested on: IGROV1 ovarian
K-562 leukemia = tested on: K-562 leukemia
KM12 colon = tested on: KM12 colon
KM20L2 colon = tested on: KM20L2 colon
LOX IMVI melanoma = tested on: LOX IMVI melanoma
LXFL 529 NSCLC = tested on: LXFL 529 NSCLC
M14 melanoma = tested on: M14 melanoma
M19-MEL melanoma = tested on: M19-MEL melanoma
MOLT-4 leukemia = tested on: MOLT-4 leukemia
NCI-H226 lung = tested on: NCI-H226 lung
NCI-H23 lung = tested on: NCI-H23 lung
NCI-H460 lung = tested on: NCI-H460 lung
NCI-H522 lung = tested on: NCI-H522 lung
OVCAR-3 ovarian = tested on: OVCAR-3 ovarian
OVCAR-4 ovarian = tested on: OVCAR-4 ovarian
OVCAR-5 ovarian = tested on: OVCAR-5 ovarian
OVCAR-8 ovarian = tested on: OVCAR-8 ovarian
RPMI-8226 leukemia = tested on: RPMI-8226 leukemia
RXF 393 renal = tested on: RXF 393 renal
SF-268 CNS = tested on: SF-268 CNS
SF-295 CNS = tested on: SF-295 CNS
SF-539 CNS = tested on: SF-539 CNS
SK-MEL-2 melanoma = tested on: SK-MEL-2 melanoma
SK-MEL-28 melanoma = tested on: SK-MEL-28 melanoma
SK-MEL-5 melanoma = tested on: SK-MEL-5 melanoma
SK-OV-3 ovarian = tested on: SK-OV-3 ovarian
SN12C renal = tested on: SN12C renal
SNB-19 CNS = tested on: SNB-19 CNS
SNB-75 CNS = tested on: SNB-75 CNS
SNB-78 CNS = tested on: SNB-78 CNS
SW-620 colon = tested on: SW-620 colon
TK-10 renal = tested on: TK-10 renal
U251 CNS = tested on: U251 CNS
UACC-62 melanoma = tested on: UACC-62 melanoma
UO-31 renal = tested on: UO-31 renal
XF 498 CNS = tested on: XF 498 CNS
CAKI-1 renal = tested on: CAKI-1 renal
HCC-2998 colon = tested on: HCC-2998 colon
MALME-3M melanoma = tested on: MALME-3M melanoma
SR leukemia = tested on: SR leukemia
UACC-257 melanoma = tested on: UACC-257 melanoma

`COc1ccc(C(=O)O)c(Br)c1OCc1ccccc1` gave a TGI (786-0 renal) of over 100 µM, a TGI (A498 renal) of over 100 µM and a TGI (A549 NSCLC) of over 100 µM. It also gave a TGI (ACHN renal) of over 100 µM, a TGI (CCRF-CEM leukemia) of over 100 µM and a TGI (COLO 205 colon) of over 100 µM. For the same compound, the TGI (DLD-1 colon) was over 100 µM, the TGI (DMS 114 small cell lung) was over 100 µM and the TGI (DMS 273 small cell lung) was over 100 µM. For the same compound, the TGI (EKVX NSCLC) was over 100 µM, the TGI (HCT-116 colon) was over 100 µM and the TGI (HCT-15 colon) was over 100 µM. For the same compound, the TGI (HL-60(TB) leukemia) was over 100 µM, the TGI (HOP-62 NSCLC) was over 100 µM and the TGI (HOP-92 NSCLC) was over 100 µM. It also gave a TGI (HT29 colon) of over 100 µM, a TGI (IGROV1 ovarian) of over 100 µM and a TGI (K-562 leukemia) of over 100 µM. It also gave a TGI (KM12 colon) of over 100 µM, a TGI (KM20L2 colon) of over 100 µM and a TGI (LOX IMVI melanoma) of over 100 µM. It also gave a TGI (LXFL 529 NSCLC) of over 100 µM, a TGI (M14 melanoma) of over 100 µM and a TGI (M19-MEL melanoma) of over 100 µM. It also gave a TGI (MOLT-4 leukemia) of over 100 µM, a TGI (NCI-H226 lung) of over 100 µM and a TGI (NCI-H23 lung) of over 100 µM. For the same compound, the TGI (NCI-H460 lung) was over 100 µM, the TGI (NCI-H522 lung) was over 100 µM and the TGI (OVCAR-3 ovarian) was over 100 µM. It also gave a TGI (OVCAR-4 ovarian) of over 100 µM, a TGI (OVCAR-5 ovarian) of over 100 µM and a TGI (OVCAR-8 ovarian) of over 100 µM. For the same compound, the TGI (RPMI-8226 leukemia) was over 100 µM, the TGI (RXF 393 renal) was over 100 µM and the TGI (SF-268 CNS) was over 100 µM. The TGI (SF-295 CNS) was over 100 µM, the TGI (SF-539 CNS) was over 100 µM and the TGI (SK-MEL-2 melanoma) was over 100 µM. It also gave a TGI (SK-MEL-28 melanoma) of over 100 µM, a TGI (SK-MEL-5 melanoma) of over 100 µM and a TGI (SK-OV-3 ovarian) of over 100 µM. It also gave a TGI (SN12C renal) of over 100 µM, a TGI (SNB-19 CNS) of over 100 µM and a TGI (SNB-75 CNS) of over 100 µM. For the same compound, the TGI (SNB-78 CNS) was over 100 µM, the TGI (SW-620 colon) was over 100 µM and the TGI (TK-10 renal) was over 100 µM. It also gave a TGI (U251 CNS) of over 100 µM, a TGI (UACC-62 melanoma) of over 100 µM and a TGI (UO-31 renal) of over 100 µM. The TGI (XF 498 CNS) was over 100 µM.
For `CC(c1ccccc1)N1O[C@]12CC[C@@]1(C)C(CCCC13OCCO3)C2` (stereo partly specified), the TGI (786-0 renal) was 36.5 µM, the TGI (A549 NSCLC) was 43 µM and the TGI (ACHN renal) was 30.3 µM. It also gave a TGI (CAKI-1 renal) of 37.2 µM, a TGI (COLO 205 colon) of 32.5 µM and a TGI (DLD-1 colon) of 32.7 µM. The TGI (DMS 114 small cell lung) was 27.4 µM, the TGI (DMS 273 small cell lung) was 36 µM and the TGI (HCC-2998 colon) was over 100 µM. For the same compound, the TGI (HCT-116 colon) was 29.6 µM, the TGI (HCT-15 colon) was 46.2 µM and the TGI (HOP-62 NSCLC) was over 100 µM. It also gave a TGI (HOP-92 NSCLC) of 23.7 µM, a TGI (HT29 colon) of 44.3 µM and a TGI (IGROV1 ovarian) of 12.1 µM. The TGI (KM12 colon) was 43.2 µM, the TGI (KM20L2 colon) was over 100 µM and the TGI (LOX IMVI melanoma) was 26.2 µM. The TGI (M14 melanoma) was 32.1 µM, the TGI (M19-MEL melanoma) was 51 µM and the TGI (MALME-3M melanoma) was 83.9 µM. The TGI (NCI-H226 lung) was over 100 µM, the TGI (NCI-H23 lung) was over 100 µM and the TGI (NCI-H460 lung) was 38.1 µM. For the same compound, the TGI (NCI-H522 lung) was 32 µM, the TGI (OVCAR-3 ovarian) was 34.4 µM and the TGI (OVCAR-4 ovarian) was 33.2 µM. It also gave a TGI (OVCAR-5 ovarian) of over 100 µM, a TGI (OVCAR-8 ovarian) of 37.2 µM and a TGI (RPMI-8226 leukemia) of over 100 µM. For the same compound, the TGI (RXF 393 renal) was 54.5 µM, the TGI (SF-268 CNS) was over 100 µM and the TGI (SF-295 CNS) was 44.3 µM. It also gave a TGI (SF-539 CNS) of over 100 µM, a TGI (SK-MEL-28 melanoma) of over 100 µM and a TGI (SK-MEL-5 melanoma) of 93.1 µM. The TGI (SK-OV-3 ovarian) was over 100 µM, the TGI (SN12C renal) was 75.6 µM and the TGI (SNB-19 CNS) was over 100 µM. It also gave a TGI (SNB-75 CNS) of 39 µM, a TGI (SNB-78 CNS) of 40.9 µM and a TGI (SR leukemia) of 40.4 µM. It also gave a TGI (SW-620 colon) of 34.4 µM, a TGI (TK-10 renal) of 32.2 µM and a TGI (U251 CNS) of 37.6 µM. It also gave a TGI (UACC-257 melanoma) of 43.4 µM, a TGI (UACC-62 melanoma) of 35.4 µM and a TGI (UO-31 renal) of 31.9 µM. It also gave a TGI (XF 498 CNS) of 44.3 µM.
